Here are results for 13 compounds from patent publication US8268990B2, “Compounds” (AstraZeneca AB, priority 2007, dated 2012).

By EC50 is commonly meant the concentration that produces a half-maximal response.

This assay addresses T1, Recombinant human TLR7 (Homo sapiens, UniProt Q9NYK1).
T1 construct: expressed in transfected cells; host or cells: HEK293 cell line stably expressing the pNiFty2-SEAP reporter plasmid; TLR7 in vector pUNO, blasticidin selection
T1 sequence (Q9NYK1 27-1049): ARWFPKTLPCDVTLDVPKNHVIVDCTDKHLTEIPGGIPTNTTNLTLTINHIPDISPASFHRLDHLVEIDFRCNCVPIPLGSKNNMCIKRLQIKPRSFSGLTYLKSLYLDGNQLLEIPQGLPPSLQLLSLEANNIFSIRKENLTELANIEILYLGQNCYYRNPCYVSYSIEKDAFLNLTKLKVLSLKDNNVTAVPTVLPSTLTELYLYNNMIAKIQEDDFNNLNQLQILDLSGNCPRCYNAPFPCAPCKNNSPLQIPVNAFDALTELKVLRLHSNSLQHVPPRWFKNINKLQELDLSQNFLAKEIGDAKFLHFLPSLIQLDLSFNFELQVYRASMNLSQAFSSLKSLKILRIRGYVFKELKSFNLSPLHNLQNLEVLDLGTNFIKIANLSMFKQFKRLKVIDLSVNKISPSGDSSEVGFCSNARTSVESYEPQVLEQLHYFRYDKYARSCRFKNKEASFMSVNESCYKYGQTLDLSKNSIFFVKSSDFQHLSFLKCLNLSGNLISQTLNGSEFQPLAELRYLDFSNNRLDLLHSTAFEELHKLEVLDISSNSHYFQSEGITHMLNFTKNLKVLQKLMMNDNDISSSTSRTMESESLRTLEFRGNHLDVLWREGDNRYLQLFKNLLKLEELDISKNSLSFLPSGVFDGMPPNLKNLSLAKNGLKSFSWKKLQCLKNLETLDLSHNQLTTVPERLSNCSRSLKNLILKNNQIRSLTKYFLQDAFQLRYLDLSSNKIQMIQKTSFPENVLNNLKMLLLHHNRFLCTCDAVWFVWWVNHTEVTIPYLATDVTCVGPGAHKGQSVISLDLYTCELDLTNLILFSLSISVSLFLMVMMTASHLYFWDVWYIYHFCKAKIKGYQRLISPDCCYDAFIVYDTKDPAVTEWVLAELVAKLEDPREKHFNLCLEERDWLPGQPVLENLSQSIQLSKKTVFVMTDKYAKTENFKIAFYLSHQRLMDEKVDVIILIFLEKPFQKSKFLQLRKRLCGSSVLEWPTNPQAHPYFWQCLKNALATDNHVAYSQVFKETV
As to the kind of experiment: Human TLR7 Assay (SEAP reporter).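 Note: SEAP driven by an NFkB-responsive composite promoter, pEC50 read at half of each compound's own maximal SEAP induction.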 In kind it is cell-based. The conditions noted are these: HEK293 cell line stably expressing human TLR7 and pNiFty2-SEAP reporter; SEAP induction after overnight incubation at 37° C., 0.1% (v/v) DMSO.
Description: Recombinant human TLR7 was stably expressed in a HEK293 cell line already stably expressing the pNiFty2-SEAP reporter plasmid; integration of the reporter gene was maintained by selection with the antibiotic zeocin. The most common variant sequence of human TLR7 (represented by the EMBL sequence AF240467) was cloned into the mammalian cell expression vector pUNO and transfected into this reporter cell-line. Transfectants with stable expression were selected using the antibiotic blasticidin. In this reporter cell-line, expression of secreted alkaline phosphatase (SEAP) is controlled by an NFkB/ELAM-1 composite promoter comprising five NFkB sites combined with the proximal ELAM-1 promoter. TLR signaling leads to the translocation of NFkB and activation of the promoter results in expression of the SEAP gene. TLR7-specific activation was assessed by determining the level of SEAP produced following overnight incubation of the cells at 37° C. with the standard compound in the presence of 0.1% (v/v) dimethylsulfoxide (DMSO). Concentration dependent induction of SEAP production by compounds was expressed as the concentration of compound which produced half of the maximal level of SEAP induction for that compound (pEC50).
Take `CCCCNc1nc(N)nc(C)c1Cc1ccc(CC(=O)OCC2CCN(C)CC2)cc1O` [Example 103, (1-Methylpiperidin-4-yl)methyl 2-(4-((2-amino-4-(butylamino)-6-methylpyrimidin-5-yl)methyl)-3-hydroxyphenyl)acetate]: the 50% effective concentration (EC50) was 126 nM.
For `CCCCCNc1nc(N)nc(C)c1CCCN(Cc1cccc(CC(=O)OC)c1)C(=O)CN1CCC(O)CC1` [Example 7, Methyl 2-(3-((N-(3-(2-amino-4-methyl-6-(pentylamino)pyrimidin-5-yl)propyl)-2-(4-hydroxypiperidin-1-yl)acetamido)methyl)phenyl)acetate], the EC50 was 2510 nM.
To `CCCCCNc1nc(N)nc(C)c1CCCNC(=O)Cc1ccc(CC(=O)OC)cc1` [Example 23, Methyl 2-(4-(2-(3-(2-amino-4-methyl-6-(pentylamino)pyrimidin-5-yl)propylamino)-2-oxoethyl)phenyl)acetate] belongs 1000 nM; to `CCC[C@@H](CO)Nc1nc(N)nc(C)c1Cc1ccc(CC(=O)OCC2CCN(C)CC2)cc1OC` [Example 71, (S)-(1-Methylpiperidin-4-yl)methyl 2-(4-((2-amino-4-(1-hydroxypentan-2-ylamino)-6-methylpyrimidin-5-yl)methyl)-3-methoxyphenyl)acetate], 20 nM.
To `CCCC[C@@H](CCO)Nc1nc(N)nc(C)c1CCCN(Cc1ccc(CC(=O)OC)cc1)C(=O)CN(C)C` [Example 19, (S)-Methyl 2-(4-((N-(3-(2-amino-4-(1-hydroxyheptan-3-ylamino)-6-methylpyrimidin-5-yl)propyl)-2-(dimethylamino)acetamido)methyl)phenyl)acetate] belongs 2510 nM; to `CCCCCNc1nc(N)nc(C)c1CCCN(Cc1ccc(CC(=O)OC)cc1)C(=O)CN1CCCC(c2ccc(S(C)(=O)=O)cc2)C1` (stereo not shown) [Example 26, Methyl 2-(4-((N-(3-(2-amino-4-methyl-6-(pentylamino)pyrimidin-5-yl)propyl)-2-(3-(4-(methylsulfonyl)phenyl)piperidin-1-yl)acetamido)methyl)phenyl)acetate], 794 nM; to `CCC[C@@H](CO)Nc1nc(N)nc(C)c1Cc1ccc(CC(=O)OC)cc1OC` [Example 30, (S)-Methyl 2-(4-((2-amino-4-(1-hydroxypentan-2-ylamino)-6-methylpyrimidin-5-yl)methyl)-3-methoxyphenyl)acetate], 31.6 nM.
On to `CCCCCNc1nc(N)nc(C)c1Cc1cccc(CC(=O)OC)c1` [Example 20, Methyl 2-(3-((2-amino-4-methyl-6-(pentylamino)pyrimidin-5-yl)methyl)phenyl)acetate], for which the EC50 is 2000 nM.
To `CCCCCNc1nc(N)nc(C)c1CCCNC(=O)Cc1cccc(CC(=O)OC)c1` [Example 24, Methyl 2-(3-(2-(3-(2-amino-4-methyl-6-(pentylamino)pyrimidin-5-yl)propylamino)-2-oxoethyl)phenyl)acetate] belongs 1000 nM; to `CCC[C@@H](CO)Nc1nc(N)nc(C)c1Cc1ccc(CC(=O)OC)cc1O` [Example 88, (S)-Methyl 2-(4-((2-amino-4-(1-hydroxypentan-2-ylamino)-6-methylpyrimidin-5-yl)methyl)-3-hydroxyphenyl)acetate], 100 nM.
As to `CCCCCNc1nc(N)nc(C)c1Cc1ccc(CC(=O)OC)cc1F` [Example 22, Methyl 2-(4-((2-amino-4-methyl-6-(pentylamino)pyrimidin-5-yl)methyl)-3-fluorophenyl)acetate], the EC50 was 631 nM.
For `CCCCNc1nc(N)nc(C)c1Cc1ccc(CC(=O)OCCCS(C)(=O)=O)cc1OC` [Example 92, 3-(Methylsulfonyl)propyl 2-(4-((2-amino-4-(butylamino)-6-methylpyrimidin-5-yl)methyl)-3-methoxyphenyl)acetate], the EC50 was 20 nM.
As to `CCCCCNc1nc(N)nc(C)c1CCCN(Cc1ccc(CC(=O)OC)cc1)C(=O)CN1CCCCC1` [Example 29, Methyl 2-(4-((N-(3-(2-amino-4-methyl-6-(pentylamino)pyrimidin-5-yl)propyl)-2-(piperidin-1-yl)acetamido)methyl)phenyl)acetate], the EC50 is 794 nM.
